# Experiments:
# [1] = biological target: T1, Human immunodeficiency virus type 1 protease (Human immunodeficiency virus 1, UniProt Q72874); experiment: Binding affinity against HIV-1 protease.
# [2] = biological target: Human immunodeficiency virus type 1 protease (Human immunodeficiency virus 1) (UniProt Q72874)
# [3] = biological target: T1, Human immunodeficiency virus type 1 protease; experiment: Binding affinity towards HIV protease
Ki [3],SMILES,Ki [1],IC90 [2]
,CCC(Cc1ccccc1)c1cc(O)c(C(c2cccc(NS(=O)(=O)c3ccc(C#N)cc3)c2)C2CC2)c(=O)o1 (stereo not given),5.7 nM,9.9 µM
,Cn1cnc(S(=O)(=O)Nc2cccc(C(c3c(O)cc(CCc4ccccc4)oc3=O)C3CC3)c2)c1 (stereo not given),0.97 nM,
,N#Cc1ccc(S(=O)(=O)Nc2cccc(C(c3c(O)oc(C(CC4CC4)CC4CC4)cc3=O)C3CC3)c2)cc1 (stereo not given),5.4 nM,8.9 µM
,COc1ccc2c(O)c(C(c3cccc(NS(=O)(=O)c4ccc(F)cc4)c3)C3CC3)c(=O)oc2c1 (stereo not given),7.7 nM,
,CCCS(=O)(=O)Nc1cccc(C(c2c(O)cc(C(CC)Cc3ccccc3)oc2=O)C2CC2)c1 (stereo not given),40 nM,11.1 µM
,CCC(Cc1ccccc1)c1cc(O)c(C(c2cccc(NS(=O)(=O)c3cn(C)cn3)c2)C2CC2)c(=O)o1 (mixture of isomers) [listing 1 of 2 here],,4.1 µM
,CCC(Cc1ccccc1)c1cc(O)c(C(c2cccc(NS(=O)(=O)c3ccc(OC)cc3)c2)C2CC2)c(=O)o1 (stereo not given),22 nM,7.6 µM
,"Cn1cnc(S(=O)(=O)Nc2cccc(C(c3c(O)cc(C(CC4CC4)CC4CC4)oc3=O)C3CC3)c2)c1 (single isomer, unassigned; enantiomer 1)",,10.4 µM
,"CCC(Cc1ccccc1)c1cc(O)c(C(c2cccc(NS(=O)(=O)c3cn(C)cn3)c2)C2CC2)c(=O)o1 (single isomer, unassigned; diastereomer 3) [listing 1 of 2 here]",,6.8 µM
,COCCOCCC(CCOCCOC)c1cc(O)c(C(c2cccc(NS(=O)(=O)c3cn(C)cn3)c2)C2CC2)c(=O)o1 (stereo not given),4.2 nM,
,COc1ccc2c(O)c(C(c3cccc(NS(=O)(=O)c4cccc5cccnc45)c3)C3CC3)c(=O)oc2c1 (stereo not given),4.9 nM,
44 nM,CCC(Cc1ccccc1)c1cc(O)c(C(c2cccc(NC(=O)Cc3cccnc3)c2)C2CC2)c(=O)o1 (stereo not given),,
,O=c1cc(C(CC2CC2)CC2CC2)oc(O)c1C(c1cccc(NS(=O)(=O)c2cccc3cccnc23)c1)C1CC1 (stereo not given),5.3 nM,6.5 µM
,COc1ccc2c(O)c(C(c3cccc(NS(=O)(=O)c4ccc(C#N)cc4)c3)C3CC3)c(=O)oc2c1 (stereo not given),5.8 nM,
,"CCC(Cc1ccccc1)c1cc(O)c(C(c2cccc(NS(=O)(=O)c3cn(C)cn3)c2)C2CC2)c(=O)o1 (single isomer, unassigned; diastereomer 1) [listing 1 of 2 here]",0.52 nM,
,CCC(Cc1ccccc1)c1cc(O)c(C(c2cccc(NS(=O)(=O)c3cccnc3)c2)C2CC2)c(=O)o1 (stereo not given),12 nM,28.7 µM
,O=c1cc(C(CC2CC2)CC2CC2)oc(O)c1C(c1cccc(NS(=O)(=O)c2ccc(F)cc2)c1)C1CC1 (stereo not given),16 nM,8 µM
,O=c1cc(C(CC2CC2)CC2CC2)oc(O)c1C(c1cccc(NS(=O)(=O)c2ccccc2)c1)C1CC1 (stereo not given),23 nM,12.1 µM
,"CCC(Cc1ccccc1)c1cc(O)c(C(c2cccc(NS(=O)(=O)c3cn(C)cn3)c2)C2CC2)c(=O)o1 (single isomer, unassigned; diastereomer 2) [listing 1 of 2 here]",0.73 nM,
,CCC(CC)c1cc(O)c(C(c2cccc(NS(=O)(=O)c3cn(C)cn3)c2)C2CC2)c(=O)o1 (stereo not given),0.54 nM,

Ki [3],SMILES,Ki [1],IC90 [2]
,CCC(CC1CCOCC1)c1cc(O)c(C(c2cccc(NS(=O)(=O)c3cn(C)cn3)c2)C2CC2)c(=O)o1 (stereo not given),0.48 nM,
,CCC(Cc1ccccc1)c1cc(O)c(C(c2cccc(NS(=O)(=O)c3cn(C)cn3)c2)C2CC2)c(=O)o1 (mixture of isomers) [listing 2 of 2 here],1.3 nM,
,Cn1cnc(S(=O)(=O)Nc2cccc(C(c3c(O)cc(C(CC4CC4)CC4CC4)oc3=O)C3CC3)c2)c1 (racemic),,4.6 µM
,"CCC(Cc1ccccc1)c1cc(O)c(C(c2cccc(NS(=O)(=O)c3cn(C)cn3)c2)C2CC2)c(=O)o1 (single isomer, unassigned; diastereomer 4) [listing 1 of 2 here]",1.4 nM,
,Cc1cc(O)c(C(c2cccc(NS(=O)(=O)c3cn(C)cn3)c2)C2CC2)c(=O)o1 (stereo not given),14 nM,
,CCC(Cc1ccccc1)c1cc(O)c(C(c2cccc(NS(=O)(=O)c3ccccc3)c2)C2CC2)c(=O)o1 (stereo not given),17 nM,7.6 µM
,CCC(Cc1ccccc1)c1cc(O)c(C(c2cccc(NS(=O)(=O)c3ccc(Cl)cc3)c2)C2CC2)c(=O)o1 (stereo not given),15 nM,6.2 µM
,"CCC(Cc1ccccc1)c1cc(O)c(C(c2cccc(NS(=O)(=O)c3cn(C)cn3)c2)C2CC2)c(=O)o1 (single isomer, unassigned; diastereomer 4) [listing 2 of 2 here]",,6 µM
,CCC(CCOCCOC)c1cc(O)c(C(c2cccc(NS(=O)(=O)c3cn(C)cn3)c2)C2CC2)c(=O)o1 (stereo not given),0.88 nM,
1 nM,COc1c(C(O)c2ccccc2)c(=O)oc2ccccc12 (stereo not given),,
,"Cn1cnc(S(=O)(=O)Nc2cccc(C(c3c(O)cc(C(CC4CC4)CC4CC4)oc3=O)C3CC3)c2)c1 (single isomer, unassigned; enantiomer 2)",,6.9 µM
,CCC(Cc1ccccc1)c1cc(O)c(C(c2cccc(NS(=O)(=O)c3cccc4cccnc34)c2)C2CC2)c(=O)o1 (stereo not given),3.5 nM,6 µM
110 nM,CCC(c1cccc(NC(=O)CCNC2C=Cc3ccccc32)c1)c1c(O)oc2ccccc2c1=O (stereo not given),,
,"CCC(Cc1ccccc1)c1cc(O)c(C(c2cccc(NS(=O)(=O)c3cn(C)cn3)c2)C2CC2)c(=O)o1 (single isomer, unassigned; diastereomer 3) [listing 2 of 2 here]",1.9 nM,
4 nM,CCC(Cc1ccccc1)c1cc(O)c(C(c2cccc(NC(=O)C(Cc3c[nH]cn3)NC(=O)OC(C)(C)C)c2)C2CC2)c(=O)o1 (stereo not given),,
,"CCC(Cc1ccccc1)c1cc(O)c(C(c2cccc(NS(=O)(=O)c3cn(C)cn3)c2)C2CC2)c(=O)o1 (single isomer, unassigned; diastereomer 2) [listing 2 of 2 here]",,5.7 µM
,"CCC(Cc1ccccc1)c1cc(O)c(C(c2cccc(NS(=O)(=O)c3cn(C)cn3)c2)C2CC2)c(=O)o1 (single isomer, unassigned; diastereomer 1) [listing 2 of 2 here]",,4.5 µM
,COCCOCCCc1cc(O)c(C(c2cccc(NS(=O)(=O)c3cn(C)cn3)c2)C2CC2)c(=O)o1 (stereo not given),1.6 nM,
,COc1ccc2c(O)c(C(c3cccc(NS(=O)(=O)c4cn(C)cn4)c3)C3CC3)c(=O)oc2c1 (stereo not given),0.7 nM,

# From ChEMBL document CHEMBL1129342, “Structure-based design of novel HIV protease inhibitors: sulfonamide-containing 4-hydroxycoumarins and 4-hydroxy-2-pyrones as potent non-peptidic inhibitors” (J Med Chem, 1996)
